Consider 23 molecules from patent US20250152601A1, “Compositions and Methods for the Treatment of Sexual Dysfunctions” (The Jonathan Hurt Living Trust, priority 2022, published 2025).

The subject of data set [1] is tactile sexual function (TSF). As to the kind of experiment: Self-measured tactile sexual function (TSF) scores C, CT, A, B, BM, BS after ingesting treatment substance(s).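 On all read-outs here: Self-rated by the single male inventor (about 65 kg) after oral intake, capsules unless noted, on the TSF scale, each one-unit score rise means roughly double the sensation intensity.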 The following applies: for C, A and B scores when combined with Val and NAC: at 60 minutes; for effect on TSF, stated in words: inventor; for TSF when both paroxetine and finasteride were ingested: during use of both drugs.
From the text: Some treatment substances were in liquid form when orally ingested. For the Working Examples herein all treatment substances were in capsule form unless otherwise noted in the Tables herein. […] It is contemplated that the mg per kilogram dose of treatment substances and/or the time from ingesting one or more treatment substances may vary from person to person for optimum improvement in treating a sexual dysfunction (e.g., an SRSS including reduced TSF or absent TSF). In some instances, it is contemplated that ingesting one treatment substance may be done at a different time than ingesting another treatment substance to optimize the effect in treating a sexual dysfunction.
For a male, the A score is the highest intensity of TSF just before the first muscle contraction of ejaculation, and the B score is the highest intensity of TSF just after the first muscle contraction of ejaculation.

Data set [2] has as its system tactile sexual function (TSF). As to the kind of experiment: C score at varying time points after ingestion (duration of effect; rise, peak, fall pattern or decline pattern). Particulars: C scores at 20 to 60 minutes. It counts as in vivo, human. From the text:
Table 42 records the increases/decreases in C scores over time as a measure of the duration of the effect of ingesting a treatment substance on TSF, for some working examples listed in previous tables. These working examples measured TSF for C scores at varying time points after the first ingestion of a treatment substance and before the measurement of the B score. Negative time scores indicate that the C score measurement occurred prior to ingesting a treatment substance, such as at example T37:82 the […] time is listed as −20 as the measurement for the C score at the C1 time was made 20 minutes before ingesting the treatment substance. In some examples additional rows were used to record C scores (e.g., examples T37:82 and T40:1). The duration of the effect of treatment substance(s) on the C score varied, with some reaching a peak C score before the B score measurement (e.g., see example T37:43), and other still increasing in C score to the B score measurement (e.g., see example T41:8).
Early C score measurements, when available, are shown for 20, 30, 40, and/or 50 minutes. […] Individual combinations of Val and NAC and another treatment substance may vary from the average's rise, peak, fall pattern (e.g., T41:120). […]

The conditions of data set [3]: in ester or salt form, cited from earlier work.
For a further data set, the system named is ejaculation/orgasm. In words: Ejaculation scores D (strength of the muscle contractions during ejaculation) and DE (ease to achieve ejaculation), incl. FE/FO. Particulars: for effect on D/DE scores, stated in words: Examples with the positive cholinergic; for time after ingestion at which the increase in DE score may peak: before 60 minutes; for average D score / average DE score: when not combined with another listed positive cholinergic. It is filed as in vivo, human.

Data set [4] can be described thus: Non-sexual side effects associated with ingesting treatment substances.
A further data set has as its target mGlu5-R (Homo sapiens, UniProt P41594). The following applies: Glu released by Xc- after exchange for Cys2; cited from earlier work.
In a further data set the test system is mGlu(2/3)-R. The following applies: rats, striatum; cited from earlier work.
For data set [5] the following is noted: in vivo; cited from earlier work.
Setting [6] is: Table 47A, dose in mg per example: Phenibut 450, Homotaurine 50, 150, 200, 250, listed as T38:5.
Setting [7] is: Table 47A, dose in mg per example: Phenibut 450, Homotaurine 50, 150, 200, 250.
The mark [8] stands for this setting: Table 47A, dose in mg per example: Phenibut 450, Homotaurine 50, 150, 200, 250, beverage and time as in Tables 37, 38, 39.
Setting [9] is: Table 39C, ingested at times other than 60 minutes before measurements.
[10] abbreviates: Table 39B, ingested at times other than 60 minutes before measurements, various beverages.
[11] abbreviates: after the first day of ingesting bupropion.
The mark [12] stands for this setting: prolonged daily ingestion (D-Asp 3000 mg/day about a week; bupropion per prescription, following months).
The mark [13] stands for this setting: Table 47A, dose in mg per example: Phenibut 450, Homotaurine 50, 150, 200, 250, listed as T38:18.

SMILES strings stand for the structures. Where a name gives a salt, the structure may show the parent alone. Read-outs that look alike come from different tables or passages of the source.

mGlu5-R, sequence (P41594 21-1212): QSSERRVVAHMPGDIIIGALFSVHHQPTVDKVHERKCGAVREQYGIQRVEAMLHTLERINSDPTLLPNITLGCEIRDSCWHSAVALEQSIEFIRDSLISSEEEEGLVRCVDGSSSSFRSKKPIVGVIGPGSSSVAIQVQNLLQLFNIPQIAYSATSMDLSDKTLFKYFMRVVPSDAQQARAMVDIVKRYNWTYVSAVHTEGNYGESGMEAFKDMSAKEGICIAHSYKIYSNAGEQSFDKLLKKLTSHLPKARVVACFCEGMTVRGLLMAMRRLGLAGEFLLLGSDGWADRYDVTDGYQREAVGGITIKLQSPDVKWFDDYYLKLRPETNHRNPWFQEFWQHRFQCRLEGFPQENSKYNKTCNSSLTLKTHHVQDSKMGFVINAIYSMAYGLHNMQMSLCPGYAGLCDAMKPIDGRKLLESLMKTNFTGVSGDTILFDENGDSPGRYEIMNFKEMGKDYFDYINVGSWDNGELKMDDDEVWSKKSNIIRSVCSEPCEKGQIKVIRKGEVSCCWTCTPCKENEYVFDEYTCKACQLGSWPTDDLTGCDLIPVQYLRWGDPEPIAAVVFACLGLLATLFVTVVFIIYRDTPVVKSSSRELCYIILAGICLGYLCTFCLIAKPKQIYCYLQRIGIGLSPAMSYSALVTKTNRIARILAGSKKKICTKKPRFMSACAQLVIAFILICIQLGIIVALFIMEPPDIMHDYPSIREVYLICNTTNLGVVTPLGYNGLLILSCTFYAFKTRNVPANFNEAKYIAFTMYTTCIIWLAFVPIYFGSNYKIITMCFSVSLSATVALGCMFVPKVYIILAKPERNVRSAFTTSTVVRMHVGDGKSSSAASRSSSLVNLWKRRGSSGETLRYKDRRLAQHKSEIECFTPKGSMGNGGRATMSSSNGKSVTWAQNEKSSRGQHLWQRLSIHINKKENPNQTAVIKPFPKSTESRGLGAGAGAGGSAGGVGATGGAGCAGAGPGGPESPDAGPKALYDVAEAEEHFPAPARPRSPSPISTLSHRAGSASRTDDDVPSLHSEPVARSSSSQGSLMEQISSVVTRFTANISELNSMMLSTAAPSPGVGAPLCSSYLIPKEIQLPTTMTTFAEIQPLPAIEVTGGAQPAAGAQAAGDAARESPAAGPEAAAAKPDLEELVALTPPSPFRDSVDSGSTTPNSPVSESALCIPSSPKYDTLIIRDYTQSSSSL
Method for ejaculation/orgasm: Variations in TSF and other sexual responses were noticed after ingesting a treatment substance, and additional scores to describe these responses were recorded in some examples. In some examples the C score for TSF was localized only to the head (“glands”) of the penis when one or more C score measurements were taken prior to attempted or achieved ejaculation/orgasm. […] In some examples after ingesting a treatment substance, the speed of B score decrease from the first muscle contraction to the last muscle contraction of ejaculation was recorded as the “BS” score using terms such as “IS” for instantaneous loss of TSF where a B score of 0.0 occurred at or immediately after the first muscle contraction, “FT” for a fast loss of TSF, and “SL” for a slow loss of TSF. In some examples the minimum B score measured at or near the last muscle contraction was recorded as the “BM” score using the same scoring parameters as for the B score. […] In some examples the ease to achieve ejaculation was recorded as the “DE” score, with a score of 1.0 being ejaculation achieved with some difficulty, 2.0 being a typical/normal ease of ejaculation, and a 3.0 being of the ease of ejaculation was promoted. […] When a score (e.g., C, CT, A, B, BM, BS, D, DE) was not recorded or not applicable then “N/A” is listed for that score and that score was not used (no numeric score) for mathematical evaluations in such an occurrence.
Dietary vitamins and nutritional supplements were ingested about 7:00 AM to about 10:30 AM with coffee, and coffee consumption ended by about 12:00 PM or earlier. No food was ingested during the day before measurements as only one meal a day is typically eaten in the evening.
Measurements were made in the morning from about 7:30 AM until about 11:30 AM.
Dietary vitamins and nutritional supplements were ingested about 7:00 AM to about 10:30 AM with coffee, and coffee consumption ended by about 12:00 PM or earlier.
No food, dietary vitamins or nutritional supplements were ingested the day of the measurements until after the measurements were taken.

As to `O=C1c2c(O)cc(O)cc2O[C@H](c2cc(O)c(O)c(O)c2)[C@H]1O` [dihydromyricetin, Dihydromyricetin], in data set [1], the “C, A and B scores when combined with Val and NAC” value is “C, A and B scores less than the lowest C, A and B scores of Val and NAC alone”; the “effect on TSF, stated in words” value is “reduced positive TSF scores”. For the same molecule, the “C score pattern over time when ingested alone” value in data set [2] was “decline pattern”.
For `NCC(CC(=O)O)c1ccccc1` (stereo not drawn) [phenibut, Phenibut HCl], the “effect on TSF, stated in words” value in data set [1] is on record as “weaker effect on improving A/B TSF scores”.
As to `COc1ccc(-c2oc3c(CC=C(C)C)c(O[C@@H]4O[C@H](CO)[C@@H](O)[C@H](O)[C@H]4O)cc(O)c3c(=O)c2O[C@@H]2O[C@@H](C)[C@H](O)[C@@H](O)[C@H]2O)cc1` [icariin, Icariin], the “C, A and B scores when combined with Val and NAC” value in data set [1] is “C score below a preferred C score and A and B scores that matched the lowest A and B scores of Val and NAC alone”.
On to `CC(C)[C@H](N)C(=O)O` [Val, Valine], for which the “effect on TSF, stated in words” value in data set [1] is given as “stronger improvement in TSF than either Leu or Ile”.
On the same count and under the same terms, then `CC(=O)N[C@@H](CCC(N)=O)C(=O)O` [AcetylGln, N-Acetyl L-Glutamine], with “relatively weak effect”.
In the case of `C[C@@H](O)CC(=O)O` [D-Beta-Hydroxybutyrate], the “blood ketone bodies such as D-Beta-Hydroxybutyrate” value is 1.0 mM in data set [3] (12 grams) and 2.8 mM in data set [3] (24 grams).
Regarding `NCCCS(=O)(=O)O` [Example T38: 5, Homotaurine], the C score in data set [1] (Table 47A, dose in mg per example: Phenibut 450, Homotaurine 50, 150, 200, 250, beverage and time as in Tables 37, 38, 39, listed as T38:5) is recorded as 1.8. In data set [1] (setting [6]), the A score was found to be 9.5 and the B score is on record as 9.5.
For `NCCCS(=O)(=O)O` [T37:56, Homotaurine], in data set [1] (setting [7]), the A score is recorded as 7.5 and the B score was 7.5. The C score in data set [1] (setting [8]) was determined as 1.2.
Turning to `NCCCC(=O)O` [GABA, gamma-aminobutyric acid], the “effect on TSF, stated in words” value in data set [1] was “mild improvement in TSF relative to Val”.
Still for that read-out and setting: then `CC(=O)N[C@@H](CS)C(=O)O` [NAC, N-Acetyl-Cysteine, reference compound], with “no positive effect was noticed on TSF”.
With `C/C=C1\[C@H]2C=C(C)C[C@]1(N)c1ccc(=O)[nH]c1C2` [Huperzine A], in the data set with ejaculation/orgasm, the “effect on D/DE scores, stated in words” value is recorded as “also had Examples of improved D/DE scores”; the “time after ingestion at which the increase in DE score may peak” value is given as “about 40 minutes”; the “average D score” value stood at 3; the “average DE score” value was 1.9.
Regarding `NCC(CC(=O)O)c1ccccc1` (stereo not drawn) [T39:13, Phenibut HCl], in the data set on ejaculation/orgasm (setting [9]), the “D score (strength of the muscle contractions during ejaculation)” value is reported as 4.0 and the “DE score (ease to achieve ejaculation)” value came out at 2.0. For the same molecule, in data set [4] (non-sexual side effect after ingesting treatment substance(s)), the “Side Effect” value is listed as “Felt not normal”. The “Time of Side Effect” value in data set [4] (time after ingesting treatment substance(s), sometimes approximated) lay in the range of 20 to 120 min. In data set [1] (setting [10]), this molecule yielded an A score of 6.5, a B score of 6.5 and a C score of 1.5. Also, in data set [1] (setting [9]), the A score is reported as 6.5, the B score is reported as 6.5 and the C score stood at 1.5. In data set [1] (setting [7]), this molecule yielded an A score of 6.5 and a B score of 6.5. In data set [1] (setting [8]), this molecule came in with a C score of 1.5.
As to `CCNC(=O)CC[C@H](N)C(=O)O` [theanine, Theanine], in the data set on ejaculation/orgasm (of 14 Examples having theanine as a treatment substance, 12 failures in all Examples), the “number of Examples with failure to ejaculate” value is given as 3.
In the data set on ejaculation/orgasm (setting [11]), `CC(NC(C)(C)C)C(=O)c1cccc(Cl)c1` (stereo not drawn) [Bupropion, reference compound] returned a D score of 3.0 and a DE score of 2.0. In the data set with ejaculation/orgasm (setting [12]), the D score was determined as 3.0 and the DE score is reported as 2.0. The “non-sexual side effect / adverse event” value in data set [4] (after ingesting the treatment substance) is recorded as “feeling odd/under the influence of a drug”. Further, in data set [1] (setting [11]), the A score result was “about 4”, the B score entry is given as “about 4” and the C score entry is “less than 1”. In data set [1] (setting [12]), this molecule showed an A score of 0, a B score of 0, a BM score of 0 and a C score of 0.
In data set [1] (setting [7]), `NCCCS(=O)(=O)O` [T37:57, Homotaurine] came in with an A score of 9.2 and a B score of 9.2. In data set [1] (setting [8]), the C score stood at 1.2.
As to `Fc1ccc([C@@H]2CCNC[C@H]2COc2ccc3c(c2)OCO3)cc1` [paroxetine, reference compound], the “TSF after discontinuing paroxetine use” value in data set [1] (finasteride continued) was “absence of TSF continued much to most of the time”. Also, in data set [1] (oral, per prescription), the “TSF when both paroxetine and finasteride were ingested” value is given as “complete lack of TSF”.
With `CN[C@H](CC(=O)O)C(=O)O` [NMDA, N-Methyl-D-Aspartic Acid, reference compound], in data set [1], the “effect on TSF, stated in words” value was “negative effect on TSF scores”.
In the case of `CC(C)(C)NC(=O)[C@H]1CC[C@H]2[C@@H]3CC[C@H]4NC(=O)C=C[C@]4(C)[C@H]3CC[C@]12C` [Finasteride, reference compound], in data set [1] (oral, per prescription), the “TSF when both paroxetine and finasteride were ingested” value is “complete lack of TSF”. Moreover, in data set [1] (oral, per prescription, inventor before SRSS), the “effect on TSF while ingesting the drug” value was “moderately reduced TSF”.
As for `N[C@@H](CCC(=O)O)C(=O)O` [Glu, Glutamic Acid], the “Glu level at which the extrasynaptic mGlu5-R becomes activated” value on mGlu5-R was 500 µM. Besides, the “Glu concentration that activated the mGlu(2/3)-R” value in the data set with mGlu(2/3)-R was 0.5 µM.
Consider `COc1ccc2c3c1O[C@H]1C[C@@H](O)C=C[C@@]31CCN(C)C2` [Galantamine HBr, Galantamine Hydrobromide, reference compound], for which, in the data set with ejaculation/orgasm, the “effect on D/DE scores, stated in words” value is recorded as “generally had improved D/DE scores”; the “time after ingestion at which the increase in DE score may peak” value was “about 40 minutes”; the “average D score” value is “about 3.6”; the “average DE score” value was determined as 2.4.
With `NCCCS(=O)(=O)O` [Example T38: 18, Homotaurine], the C score in data set [1] (Table 47A, dose in mg per example: Phenibut 450, Homotaurine 50, 150, 200, 250, beverage and time as in Tables 37, 38, 39, listed as T38:18) is given as 1.0. Also, in data set [1] (setting [13]), the A score stood at 9.2 and the B score was 9.2.
In the case of `Cn1c(=O)c2c(ncn2C)n(C)c1=O` [caffeine, Caffeine], in data set [5], the average plasma half-life is 5 h.
On to `COc1ccc([C@@H]2CC(=O)c3c(O)cc(O[C@@H]4O[C@H](CO[C@@H]5O[C@@H](C)[C@H](O)[C@@H](O)[C@H]5O)[C@@H](O)[C@H](O)[C@H]4O)cc3O2)cc1O` [hesperidin, Hesperidin], for which the “C score pattern over time when combined with Val and NAC” value in data set [2] was “rise, peak, fall pattern of C scores and not a high C, A, and/or B scores”.
